Tested on: MDA-MB-231 cells
Assay: MTT assay, synergistic effect with Paclitaxel (Example 12)
Format: cell-based, human
Settings: 20 μM, 24 or 48 h
Description: Synergistic effects of (S)2-(4′-methyl-3′-nitrobenzoylamino)-3-phenylpropionic acid and Paclitaxel was tested by MTT assay.
1) The MDA-MB-231 cells in logarithmic growth phase were seeded in the 96-well plate at a density of 4×10^3/0.2 ml. After culturing for 12 h, 10 μl Paclitaxel solution was added, with the final concentration of 0, 0.001, 0.01, 0.1, 1, 10, 50, 100, 200 μM, then 10 μL (S)2-(4′-methyl-3′-nitrobenzoylamino)-3-phenylpropionic acid PBS solution was add to half of the wells for each group with the final concentration of 20 μM, followed by continuous culturing for 24 or 48 h.
2) 5 mg/mL MTT solution was prepared with sterilized PBS, filtered with 0.22 μm film, and diluted with medium to 1 mg/mL. After discarding the medium in the 96-well plate, 100 μL 1 mg/mL MTT working solution was added, followed by continuous culturing for 5 h.
3) MTT working solution was discarded, and 150 μL DMSO was added per well (note: to away from light). The plate was shaken on a horizontal shaker at 170 rpm for 10 min, and then the absorbance at 490 nm was detected by microplate reader.

Cc1ccc(C(=O)N[C@@H](Cc2ccccc2)C(=O)O)cc1[N+](=O)[O-] [(S)2-(4′-methyl-3′-nitrobenzoylamino)-3-phenylpropionic acid]
synergistic effect with Paclitaxel: strong synergistic effect

Reference: patent US10512627B2, “Anti-tumor compound and the medical use thereof” (Tianjin Medical University Cancer Institute and Hospital, priority 2014, dated 2019)
